These are literature values, as cited in US20040197905A1, “Methods and devices for monitoring cellular metabolism in microfluidic cell-retaining chambers” (Thermogenic Imagining, priority 2003, published 2004).

Where two headings read alike, the source gives them in different places.

For the substance carboxy SNARF-1, the pKa (at 37° C.) is 7.3-7.4 and the pKa result (at room temperature) is “about 7.5”.
